The record followed here is US7998987B2, “Inhibitors of c-Met and uses thereof” (Vertex Pharmaceuticals Incorporated, priority 2005, dated 2011).

In the first assay the target is c-Met (Homo sapiens, UniProt P08581). Briefly: Ki determination for the inhibition of c-Met kinase activity (standard coupled enzyme system). Format: biochemical. The conditions noted are these: coupled enzyme system, 200 μM ATP, 80 nM c-Met, 30° C.; read-out: c-Met Ki. A digest of the protocol: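 The kinase (80 nM) turned over polyGluTyr (10 μM) with ATP (200 μM, added to start), coupled to NADH oxidation via pyruvate kinase/lactate dehydrogenase at pH 7.5 HEPES, 1.5% DMSO.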
Chain of c-Met (P08581 25-1390): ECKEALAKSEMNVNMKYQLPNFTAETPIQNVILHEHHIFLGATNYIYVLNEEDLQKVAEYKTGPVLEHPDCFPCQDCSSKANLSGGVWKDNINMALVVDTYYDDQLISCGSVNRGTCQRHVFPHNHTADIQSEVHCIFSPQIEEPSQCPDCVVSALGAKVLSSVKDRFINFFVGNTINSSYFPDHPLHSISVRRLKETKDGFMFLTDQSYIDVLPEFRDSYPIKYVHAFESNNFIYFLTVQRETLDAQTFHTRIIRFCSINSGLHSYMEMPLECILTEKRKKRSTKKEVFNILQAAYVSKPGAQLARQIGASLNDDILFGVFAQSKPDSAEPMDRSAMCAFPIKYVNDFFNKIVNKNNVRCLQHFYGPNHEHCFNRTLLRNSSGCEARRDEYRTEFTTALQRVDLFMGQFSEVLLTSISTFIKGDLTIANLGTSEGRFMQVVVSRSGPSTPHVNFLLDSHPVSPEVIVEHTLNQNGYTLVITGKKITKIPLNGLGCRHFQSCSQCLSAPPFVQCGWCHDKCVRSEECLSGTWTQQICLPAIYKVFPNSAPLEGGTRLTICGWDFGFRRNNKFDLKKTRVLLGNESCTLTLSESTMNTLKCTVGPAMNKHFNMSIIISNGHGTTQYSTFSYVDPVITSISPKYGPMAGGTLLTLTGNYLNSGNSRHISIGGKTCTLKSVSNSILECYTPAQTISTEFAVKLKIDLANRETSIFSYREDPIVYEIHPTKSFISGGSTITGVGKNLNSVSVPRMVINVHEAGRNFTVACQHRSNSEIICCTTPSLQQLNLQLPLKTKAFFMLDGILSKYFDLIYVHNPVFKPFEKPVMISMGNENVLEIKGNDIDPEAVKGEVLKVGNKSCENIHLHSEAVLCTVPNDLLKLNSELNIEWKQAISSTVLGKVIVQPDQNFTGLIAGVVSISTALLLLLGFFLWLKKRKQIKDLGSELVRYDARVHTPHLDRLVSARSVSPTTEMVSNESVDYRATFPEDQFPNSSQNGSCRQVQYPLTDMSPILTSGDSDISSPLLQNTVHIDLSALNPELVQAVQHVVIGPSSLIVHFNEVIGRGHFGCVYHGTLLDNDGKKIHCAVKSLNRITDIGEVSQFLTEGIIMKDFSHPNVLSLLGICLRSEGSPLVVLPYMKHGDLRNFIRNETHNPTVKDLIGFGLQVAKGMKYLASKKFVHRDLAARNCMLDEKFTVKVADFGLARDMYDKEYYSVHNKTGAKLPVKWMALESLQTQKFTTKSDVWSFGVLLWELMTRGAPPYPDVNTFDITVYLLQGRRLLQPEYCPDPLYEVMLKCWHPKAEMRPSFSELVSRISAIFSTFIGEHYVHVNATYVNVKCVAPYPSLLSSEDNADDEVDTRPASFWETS
For the compound `Fc1ccc(SCc2nnc3ccc(Nc4cccc(Cl)c4)nn23)cc1` [Compound 390], the Ki – broadly, a measure of affinity in units of concentration, obtained from inhibition or displacement – was above 2000 nM. For `C[C@@H](c1ccc(O)cc1)c1nnc2ccc(Sc3nc4ccccc4[nH]3)nn12` [Compound 507], the Ki is below 100 nM. Turning to `Clc1cccc(Nc2ccc3nnc(CNc4cccc5ncccc45)n3n2)c1` [Compound 518], the Ki is below 100 nM. Take `Oc1ccc(Cc2nnc3n2N=C(c2ccc4c(c2)OCCO4)CS3)cc1` [Compound 533]: the Ki was below 100 nM. For the compound `Oc1ccc(CCc2nnc3ccc(Nc4cccc(Cl)c4)nn23)cc1` [Compound 366], the Ki was in the range of 100 to 2000 nM. On to `CCc1cccc(Nc2ccc3nnc(Cc4ccc(O)cc4)n3n2)c1` [Compound 288], for which the Ki was below 100 nM. Take `Oc1ccc(Cc2nnc3ccc(Nc4cc(Cl)ccc4F)nn23)cc1` [Compound 359]: the Ki is below 100 nM.

`Clc1cccc(Nc2ccc3nnc(COc4cccc(Cl)c4)n3n2)c1` [Compound 384]: the Ki was above 2000 nM. Take `OCCc1cccc(Nc2ccc3nnc(Cc4ccc5c(c4)OCO5)n3n2)c1` [Compound 301]: the inhibition constant (Ki) was in the range of 100 to 2000 nM.

Take `Oc1cccc(Cc2nnc3ccc(Nc4cccc(Cl)c4)nn23)c1` [Compound 365]: the Ki lay in the range of 100 to 2000 nM. `C[C@@H](c1ccc(O)cc1)c1nnc2ccc(Nc3nncs3)nn12` [Compound 484]: the Ki was in the range of 100 to 2000 nM. As to `NC(=O)c1ccc(Cc2nnc3ccc(Nc4cccc(Cl)c4)nn23)cc1` [Compound 494], the inhibition constant Ki was 100 to 2000 nM. Same read-out and setting: to `Cc1cccc(SCc2nnc3ccc(Nc4cccc(Cl)c4)nn23)c1` [Compound 388] belongs above 2000 nM; to `COc1ccc(Cc2nnc3n2N=C(c2cccs2)CS3)cc1` [Compound 547], 100 to 2000 nM; to `Oc1ccc(Cc2nnc3ccc(Sc4cccc(Cl)c4)nn23)cc1` [Compound 305], below 100 nM. In the case of `Nc1ncnc2c1ccn2Cc1nnc2ccc(Nc3cccc(Cl)c3)nn12` [Compound 452], the inhibition constant Ki lay in the range of 100 to 2000 nM. On the same count and under the same terms, to `COC(=O)c1ccc(OCc2nnc3ccc(Nc4cccc(Cl)c4)nn23)c(N)c1` [Compound 433] belongs below 100 nM; to `Clc1cccc(Nc2ccc3nnc(Cc4cc5c(cc4Cl)OCO5)n3n2)c1` [Compound 504], 100 to 2000 nM; to `Fc1ccc(OCc2nnc3ccc(Nc4cccc(Cl)c4)nn23)cn1` [Compound 453], 100 to 2000 nM.

As for `Nc1ccc(Cc2nnc3ccc(Nc4cccc(Cl)c4)nn23)cc1` [Compound 456], the Ki was above 2000 nM. Consider `Oc1ccc2c(ccn2Cc2nnc3ccc(Nc4cccc(Cl)c4)nn23)c1` [Compound 435], for which the Ki is above 2000 nM. Take `CC(=O)c1cn(Cc2nnc3ccc(Nc4cccc(Cl)c4)nn23)c2ncccc12` [Compound 480]: the Ki was above 2000 nM. For the compound `CC(=O)N[C@@H]1CCCC[C@@H]1Nc1ccc2nnc([C@@H](C)c3ccc(O)cc3)n2n1` [Compound 444], the Ki is 100 to 2000 nM. As for `Clc1cccc(Nc2ccc3nnc(Cc4ccccc4)n3n2)c1` [Compound 315], the Ki is above 2000 nM.

Turning to `O=C(Cc1nnc2ccc(Nc3cccc(Cl)c3)nn12)c1cccnc1` [Compound 316], the Ki is above 2000 nM.

As for `Clc1cccc(Nc2ccc3nnc(COc4ccccn4)n3n2)c1` [Compound 373], the inhibition constant (Ki) was above 2000 nM. In the case of `NC(=O)c1ccccc1OCc1nnc2ccc(Nc3cccc(Cl)c3)nn12` [Compound 392], the Ki is above 2000 nM. For `COc1cccc(NCc2nnc3ccc(Nc4cccc(Cl)c4)nn23)c1` [Compound 336], the Ki was in the range of 100 to 2000 nM. Turning to `CC(c1ccc(O)cc1)c1nnc2ccc(Nc3cccc(Cl)c3)nn12` (centres unmarked) [Compound 321], the Ki was below 100 nM. As for `Clc1cccc(Nc2ccc3nnc(CCc4ccncc4)n3n2)c1` [Compound 394], the Ki is above 2000 nM. With `Clc1cccc(Nc2ccc3nnc(COc4ccc5nonc5c4)n3n2)c1` [Compound 472], the inhibition constant (Ki) is above 2000 nM.

The assay is the same for the next values; noted with them: coupled enzyme system, 200 μM ATP, 10 μM polyGluTyr, 80 nM c-Met, 30° C.; read-out: c-Met Ki.
In the case of `Oc1cccc(Cc2nnc3sc(Nc4cccc(F)c4F)nn23)c1` [Compound 123], the Ki was in the range of 100 to 2000 nM. On the same count and under the same terms, to `Oc1cccc(CCc2nnc3sc(Nc4cc(F)cc(F)c4)nn23)c1` [Compound 120] belongs above 2000 nM; to `CC(Oc1ccc2cccnc2c1)c1nnc2sc(Nc3cccc(Cl)c3)nn12` (centres unmarked) [Compound 164], above 2000 nM.

As for `OCc1cccc(Nc2ccc3nnc(Cc4ccc(O)cc4)n3n2)c1` [Compound 259], the inhibition constant Ki was below 100 nM. With `COc1ccc([C@H](C)c2nnc3sc(Nc4cccc(F)c4)nn23)cc1` [Compound 158], the Ki fell in the range of 100 to 2000 nM.

With `CNC(=O)c1cccc(Nc2ccc3nnc(Cc4ccc5c(c4)OCO5)n3n2)c1` [Compound 236], the Ki is 100 to 2000 nM. On to `Oc1ccc(Cc2nnc3sc(Nc4ccc(C(F)(F)F)cc4)nn23)cc1` [Compound 43], for which the Ki is below 100 nM. For the compound `C[C@@H](c1ccc(O)cc1)c1nnc2sc(Nc3cccc(F)c3)nn12` [Compound 105], the Ki was below 100 nM. As for `COc1ccc(Cc2nnc3ccc(Nc4cccc(CCO)c4)nn23)cc1` [Compound 266], the Ki lay within 100 to 2000 nM. For `CNC(=O)c1cccc(Nc2ccc3nnc(Cc4ccc(OC)cc4)n3n2)c1` [Compound 235], the Ki was in the range of 100 to 2000 nM. Regarding `C[C@H](c1ccc(O)cc1)c1nnc2sc(Nc3cccc(F)c3)nn12` [Compound 106], the Ki was below 100 nM. Regarding `NC(=O)C1CCCN(c2ccc3nnc(Cc4ccc(O)cc4)n3n2)C1` (centres unmarked) [Compound 179], the Ki was above 2000 nM. For `c1ccc(-c2ccc3nnc(CNc4ccncc4)n3n2)cc1` [Compound 211], the Ki is above 2000 nM. With `Fc1cccc(Nc2ccc3nnc(Cc4ccc5c(c4)OCO5)n3n2)c1` [Compound 286], the Ki is below 100 nM. Consider `CC(C)[C@@H](N)C(=O)Oc1ccc([C@H](C)c2nnc3sc(Nc4cccc(F)c4)nn23)cc1` [Compound 165], for which the Ki was below 100 nM.

As for `C[C@H](c1ccc(O)cc1)c1nnc2sc(Nc3ccc(Cl)cc3)nn12` [Compound 118], the Ki was 100 to 2000 nM. On to `CC(C)[C@@H](N)C(=O)Oc1ccc([C@H](C)c2nnc3sc(Nc4cccc(Cl)c4)nn23)cc1` [Compound 168], for which the Ki is below 100 nM.

As to `c1coc(-c2nn3c(Cc4ccc5c(c4)OCO5)nnc3s2)c1` [Compound 48], the Ki was above 2000 nM.

For the compound `CC(c1ccc(O)cc1)c1nnc2sc(Nc3cccc(Cl)c3F)nn12` (centres unmarked) [Compound 132], the Ki was below 100 nM. Consider `COc1ccc(Cc2nnc3ccc(Nc4cccc(C(F)(F)F)c4)nn23)cc1` [Compound 225], for which the Ki lay in the range of 100 to 2000 nM. For the compound `CC(C)Nc1ccc2nnc(Cc3ccc(O)cc3)n2n1` [Compound 276], the inhibition constant Ki lay in the range of 100 to 2000 nM. Same read-out and setting: the same measure for `CC(c1ccc(O)cc1)c1nnc2sc(Nc3cccc(F)c3F)nn12` (centres unmarked) [Compound 101]: below 100 nM; for `CNC(=O)c1cccc(Nc2ccc3nnc(Cc4ccc(O)c(F)c4)n3n2)c1` [Compound 233]: 100 to 2000 nM. On to `Oc1ccc(Cc2nnc3sc(Nc4ccccc4Cl)nn23)cc1Cl` [Compound 67], for which the Ki was in the range of 100 to 2000 nM. Regarding `OC[C@H](Cc1ccccc1)Nc1ccc2nnc(Cc3ccc(O)cc3)n2n1` [Compound 191], the inhibition constant (Ki) is above 2000 nM. On the same count and under the same terms, the same measure for `Oc1ccc(Cc2nnc3sc(Nc4ccc(-n5cccn5)cc4)nn23)cc1` [Compound 71]: below 100 nM; for `Oc1ccc(Cc2nnc3sc(NCc4ccccc4)nn23)cc1` [Compound 8]: 100 to 2000 nM. `CN(C)c1ccc(Nc2nn3c(Cc4ccc5c(c4)OCO5)nnc3s2)cc1` [Compound 85]: the Ki fell in the range of 100 to 2000 nM. For the compound `COc1ccc(CNc2ccc3nnc(Cc4ccc(O)cc4)n3n2)cc1` [Compound 267], the Ki is 100 to 2000 nM. For `Oc1ccc(Cc2nnc3sc(Nc4ccccn4)nn23)cc1` [Compound 10], the Ki was above 2000 nM. `Oc1ccc(Cc2nnc3ccc(NCc4ccccc4)nn23)cc1` [Compound 277]: the Ki lay in the range of 100 to 2000 nM. Still for that read-out and setting: the same measure for `Oc1ccc(CCc2nnc3sc(Nc4cccc(F)c4)nn23)cc1` [Compound 93]: above 2000 nM; for `Fc1cccc(Nc2ccc3nnc(Cc4ccncc4)n3n2)c1` [Compound 220]: 100 to 2000 nM. As to `Oc1ccc(Cc2nnc3ccc(NC4CCN(Cc5ccccc5)C4)nn23)cc1` (centres unmarked) [Compound 273], the Ki fell in the range of 100 to 2000 nM. Consider `C[C@@H](c1ccc(O)cc1)c1nnc2sc(Nc3ccc(F)c(Cl)c3)nn12` [Compound 159], for which the Ki is below 100 nM. Still for that read-out and setting: to `Oc1ccc(Cc2nnc3ccc(Nc4ccc(Cl)cc4)nn23)cc1` [Compound 186] belongs 100 to 2000 nM. With `N#Cc1cccc(Nc2nn3c(Cc4ccc(O)cc4)nnc3s2)c1` [Compound 18], the Ki was above 2000 nM. As to `Cc1ccc(Nc2nn3c(Cc4ccc(O)cc4)nnc3s2)cc1` [Compound 60], the Ki was below 100 nM. Still for that read-out and setting: to `FC(F)(F)c1cccc(Nc2nn3c(Cn4ccc5ncccc54)nnc3s2)c1` [Compound 136] belongs below 100 nM; to `Fc1cc(F)cc(Nc2ccc3nnc(Cc4ccncc4)n3n2)c1` [Compound 254], 100 to 2000 nM; to `Oc1ccc(Cc2nnc3sc(Nc4cc(F)cc(F)c4)nn23)cc1F` [Compound 131], below 100 nM.

Take `CCCC(C)Nc1ccc2nnc(Cc3ccc(O)cc3)n2n1` (centres unmarked) [Compound 280]: the Ki was 100 to 2000 nM. Same read-out and setting: the same measure for `COc1cccc(Nc2ccc3nnc(Cc4ccc(O)c(Cl)c4)n3n2)c1` [Compound 241]: 100 to 2000 nM. On the same count and under the same terms, to `COc1ccc(Cc2nnc3ccc(Nc4cccc(CO)c4)nn23)cc1` [Compound 262] belongs 100 to 2000 nM; to `CCN1CCCC1CNc1ccc2nnc(Cc3ccc(O)cc3)n2n1` (centres unmarked) [Compound 197], above 2000 nM. In the case of `CC(C)Oc1cccc(Nc2nn3c([C@@H](C)c4ccc(O)cc4)nnc3s2)c1` [Compound 173], the Ki was below 100 nM.
